The values below come from patent publication US7932246B2, “Histone deacetylase inhibitors” (Chroma Therapeutics Ltd., priority 2005, dated 2011).

Structures are written as SMILES.

Test [1] deals with histone deacetylase activity (HeLa nuclear extract). The test is described as follows: HDAC fluorescent activity assay (Biomol, Fluor de Lys substrate). To be noted: IC50 range. In kind it is biochemical. Put shortly: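 HeLa nuclear extract served as the deacetylase source for the acetyl-lysine Fluor de Lys substrate, with or without inhibitor. Developer converts deacetylated substrate to a fluorophore.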

Test [2] relates to HeLa cells. The test is described as follows: HeLa cell inhibition assay (SRB cell viability). The test is classed as cell-based. Particulars: Homo sapiens, HeLa, 72 h, IC50 range. In short, it runs like this: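 Log-phase cells seeded at 1000 cells/well, grown 24 h, then exposed to compound (final 20 μM top concentration) for 72 h. Viability by sulphorhodamine B staining, % inhibition relative to DMSO control. IC50 from 8-point sigmoidal variable-slope fit.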

In test [3] the test system is U937. The test is described as follows: U937 cell inhibition assay (WST-1 cell viability). The test is classed as cell-based. To be noted: Homo sapiens, U-937; U937 cells, 72-96 h, WST-1 assay, IC50 range. Put shortly: (§1)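 Cells seeded at 1000-2000/well, grown 24 h, then treated for 72-96 h with 8 concentrations (top 10 μM, 3-fold, 6 replicates). Viability by WST-1; inhibition relative to DMSO, IC50 by sigmoidal variable-slope fit.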
(Tetrazolium assays rely on reduction of a dye to a coloured formazan, in cell work by metabolically active cells.)

Test [4] has as its system HUT. Briefly: HUT cell inhibition assay (WST-1 cell viability). In kind it is cell-based. Particulars: HUT cells, 72-96 h, WST-1 assay, IC50 range. In short, it runs like this:
as §1

For orientation: IC50 means the point on the concentration scale where inhibition reaches its midpoint. A higher IC50 goes with weaker potency in that assay.

As for `O=C(NO)c1cnc(N2CC3C(CNCc4ccc5ccccc5c4)C3C2)nc1` (stereo not drawn) [Example 71, N-Hydroxy 2-{6-[(naphthalen-2-ylmethylamino)methyl]-3-azabicyclo[3.1.0]hex-3-yl}pyrimidine-5-carboxamide], the IC50 is below 100 nM in test [1], 331 to 3300 nM in test [2], 331 to 3300 nM in test [3] and below 330 nM in test [4].

On to `O=C(NO)c1cnc(N2CC3C(CNCc4ccccc4)C3C2)nc1` (stereo not drawn) [Example 72, N-Hydroxy 2-{6-[(benzylamino)methyl]-3-azabicyclo[3.1.0]hex-3-yl}pyrimidine-5-carboxamide], for which the IC50 in test [1] is below 100 nM; in test [2], 331 to 3300 nM; in test [3], 331 to 3300 nM; in test [4], below 330 nM.

As to `O=C(NO)c1cnc(N2CC3C(CNCc4ccc(Cl)cc4)C3C2)nc1` (stereo not drawn) [Example 73, N-Hydroxy 2-(6-{[(4-chlorobenzyl)amino]methyl}-3-azabicyclo[3.1.0]hex-3-yl)pyrimidine-5-carboxamide], the IC50 in test [1] is below 100 nM; in test [2], 331 to 3300 nM; in test [3], 331 to 3300 nM; in test [4], below 330 nM.

`O=C(NO)c1cnc(N2CC3C(CNCc4ccc5ccccc5n4)C3C2)nc1` (stereo not drawn) [Example 74, N-Hydroxy 2-(6-{[(quinolin-2-ylmethyl)amino]methyl}-3-azabicyclo[3.1.0]hex-3-yl)pyrimidine-5-carboxamide]: the IC50 in test [1] is below 100 nM; in test [2], 331 to 3300 nM; in test [3], 331 to 3300 nM; in test [4] it was below 330 nM.

As to `O=C(NO)c1cnc(N2CC3C(CNCc4ccc5cc(F)ccc5n4)C3C2)nc1` (stereo not drawn) [Example 75, N-Hydroxy 2-(6-{[(6-fluoroquinolin-2-ylmethyl)amino]methyl}-3-aza-bicyclo[3.1.0]hex-3-yl)pyrimidine-5-carboxamide], the IC50 in test [1] was 101 to 1000 nM; in test [2], 331 to 3300 nM; in test [3], 331 to 3300 nM; in test [4], 331 to 3300 nM.

Turning to `O=C(NO)c1cnc(N2CC3CN(S(=O)(=O)c4ccc5ccccc5c4)CC3C2)nc1` (stereo not drawn) [Example 76, N-Hydroxy 2-[5-(naphthalene-2-sulfonyl)hexahydro-pyrrolo[3,4-c]pyrrol-2(1H)-yl]pyrimidine-5-carboxamide], the IC50 in test [1] was below 100 nM; in test [2], 331 to 3300 nM; in test [3], 331 to 3300 nM; in test [4] it was below 330 nM.

On to `O=C(NO)c1cnc(N2CC3CN(C(=O)c4ccc5ccccc5c4)CC3C2)nc1` (stereo not drawn) [Example 77, N-Hydroxy 2-[5-(naphthalene-2-carbonyl)hexahydropyrrolo[3,4-c]pyrrol-2(1H)-yl]pyrimidine-5-carboxamide], for which the IC50 is below 100 nM in test [1], below 330 nM in test [2], 331 to 3300 nM in test [3] and below 330 nM in test [4].

As to `O=C(NO)c1cnc(N2CC3CN(C(=O)CCCOc4ccccc4)CC3C2)nc1` (stereo not drawn) [Example 78, N-Hydroxy 2-[5-(4-phenoxybutyryl)hexahydropyrrolo[3,4-c]pyrrol-2(1H)-yl]pyrimidine-5-carboxamide], the IC50 is below 100 nM in test [1], above 3300 nM in test [2], 331 to 3300 nM in test [3] and 331 to 3300 nM in test [4].

Consider `O=C(NO)c1cnc(N2CC3CN(Cc4ccc5ccccc5c4)CC3C2)nc1` (stereo not drawn) [Example 79, N-Hydroxy 2-(5-naphthalen-2-ylmethylhexahydropyrrolo[3,4-c]pyrrol-2(1H)-yl)pyrimidine-5-carboxamide], for which the IC50 in test [1] is below 100 nM; in test [2], below 330 nM; in test [3], below 330 nM; in test [4] it was below 330 nM.

On to `COc1ccc2c(c1)CCC2N1CC2CN(c3ncc(C(=O)NO)cn3)CC2C1` (stereo not drawn) [Example 80, N-Hydroxy 2-[5-(5-methoxyindan-1-yl)hexahydropyrrolo[3,4-c]pyrrol-2(1H)-yl]pyrimidine-5-carboxamide], for which the IC50 in test [1] is below 100 nM; in test [2], below 330 nM; in test [3], 331 to 3300 nM; in test [4], below 330 nM.

For `O=C(NO)c1cnc(N2CC3CN(S(=O)(=O)c4cc(C(F)(F)F)cc(C(F)(F)F)c4)CC3C2)nc1` (stereo not drawn) [Example 81, N-hydroxy 2-[5-(3,5-bistrifluoromethylbenzenesulfonyl)hexahydropyrrolo[3,4-c]pyrrol-2(1H)-yl]-pyrimidine-5-carboxamide], the IC50 in test [1] is below 100 nM; in test [2], above 3300 nM; in test [3] it was 331 to 3300 nM; in test [4], 331 to 3300 nM.

As for `O=C(NO)c1cnc(N2CC3CN(S(=O)(=O)c4ccc(OC(F)(F)F)cc4)CC3C2)nc1` (stereo not drawn) [Example 82, N-Hydroxy 2-[5-{[4-(trifluoromethoxy)phenyl]sulfonyl}hexahydropyrrolo[3,4-c]pyrrol-2(1H)-yl]pyrimidine-5-carboxamide], the half-inhibitory concentration (IC50) in test [1] is below 100 nM; in test [2], 331 to 3300 nM; in test [3], 331 to 3300 nM; in test [4] it was 331 to 3300 nM.

As to `O=C(NO)c1cnc(N2CC3CN(Cc4cc(F)cc(F)c4)CC3C2)nc1` (stereo not drawn) [Example 83, N-Hydroxy 2-[5-(3,5-difluorobenzyl)hexahydropyrrolo[3,4-c]pyrrol-2(1H)-yl]pyrimidine-5-carboxamide], the IC50 in test [1] was below 100 nM; in test [2] it was 331 to 3300 nM; in test [3] it was below 330 nM; in test [4], below 330 nM.

`COc1ccc(CN2CC3CN(c4ncc(C(=O)NO)cn4)CC3C2)cc1` (stereo not drawn) [Example 84, N-Hydroxy 2-[5-(4-methoxybenzyl)hexahydropyrrolo[3,4-c]pyrrol-2(1H)-yl]pyrimidine-5-carboxamide]: the IC50 in test [1] was below 100 nM; in test [2] it was 331 to 3300 nM; in test [3] it was 331 to 3300 nM; in test [4], below 330 nM.

Turning to `O=C(NO)c1cnc(N2CC3CN(Cc4ccc(Cl)cc4)CC3C2)nc1` (stereo not drawn) [Example 85, N-Hydroxy 2-[5-(4-chlorobenzyl)hexahydropyrrolo[3,4-c]pyrrol-2(1H)-yl]pyrimidine-5-carboxamide], the IC50 in test [1] is below 100 nM; in test [2], 331 to 3300 nM; in test [3] it was below 330 nM; in test [4] it was below 330 nM.

For `O=C(NO)c1cnc(N2CCC3(CC2)CCN(S(=O)(=O)c2ccc4ccccc4c2)CC3)nc1` [Example 86, N-Hydroxy 2-[9-(naphthalene-2-sulfonyl)-3,9-diaza-spiro[5.5]undec-3-yl]pyrimidine-5-carboxamide], the IC50 in test [1] is 101 to 1000 nM; in test [2], above 3300 nM; in test [3], 331 to 3300 nM; in test [4] it was 331 to 3300 nM.

In the case of `O=C(NO)c1ccc(N2CC3CN(Cc4ccc5ccccc5c4)CC3C2)nc1` (stereo not drawn) [Example 87], the IC50 in test [1] is below 100 nM; in test [2], 331 to 3300 nM; in test [3], 331 to 3300 nM; in test [4] it was 331 to 3300 nM.

As to `O=C(NO)c1ccc(N2CC3C(C2)C3NCc2ccc3ccccc3c2)cc1` (stereo not drawn) [Example 88, N-Hydroxy 4-{6-[(naphthalen-2-ylmethyl)-amino]-3-azabicyclo[3.1.0]hex-3-yl}-benzamide], the IC50 in test [1] is 101 to 1000 nM; in test [2] it was 331 to 3300 nM; in test [3] it was 331 to 3300 nM; in test [4] it was 331 to 3300 nM.
